The subject of the assay is AK4 lymphoid leukemia ip, C3AKF1 mice, survival. Nature of the assay: NCI In Vivo Anticancer Drug Screen. Data for tumor model AK4 Lymphoid Leukemia (intraperitoneal) in C3AKF1 (CHKRF1) mice. The settings on record: endpoint: median survival time, higher = longer survival. The method, then: The antitumor activity of compounds was measured in mice bearing transplantable tumors. Survival or tumor size were measured and the results are expressed as the measurement made in the treated group (T) divided by the measurement made in the vehicle treated control group (C). The tumor model used in this assay is AK4 Lymphoid Leukemia (intraperitoneal) in C3AKF1 (CHKRF1) mice

Setting [1] is: dose: 18.8 mg/kg/injection, schedule: Q01DX010 (ip), vehicle: saline.
[2] abbreviates: dose: 37.5 mg/kg/injection, schedule: Q01DX010 (ip), vehicle: saline.
Setting [3] is: dose: 75.0 mg/kg/injection, schedule: Q01DX010 (ip), vehicle: saline.
[4] abbreviates: dose: 3.13 mg/kg/injection, schedule: Q01DX010 (ip), vehicle: saline.
Setting [5] is: dose: 6.25 mg/kg/injection, schedule: Q01DX010 (ip), vehicle: saline.
Setting [6] is: dose: 12.5 mg/kg/injection, schedule: Q01DX010 (ip), vehicle: saline.
The mark [7] stands for this setting: dose: 25.0 mg/kg/injection, schedule: Q01DX010 (ip), vehicle: saline.
The mark [8] stands for this setting: dose: 100.0 mg/kg/injection, schedule: Q01DX010 (ip), vehicle: saline.
[9] abbreviates: dose: 10.0 mg/kg/injection, schedule: Q01DX010 (ip), vehicle: saline.
[10] abbreviates: dose: 20.0 mg/kg/injection, schedule: Q01DX010 (ip), vehicle: saline.
[11] abbreviates: dose: 40.0 mg/kg/injection, schedule: Q01DX010 (ip), vehicle: saline.

Structures are written as SMILES. Where “and” joins values, the source holds several entries; their conditions need not be identical. Equal entries are not always repeated. Inconclusive results and toxic doses are left out. Starred links: 1 amine or outer side, 2 acyl side, 3 side chain; linkers in the order of their positions; H or OH if unused. Positions of bridges follow the written chain, without caps; N, C: chain ends. Non-standard residues stand in square brackets, D forms with d. Residues, ends and D or L forms follow the SMILES beside them. Chains are numbered I, II in the order given. Actinocin(9to1) = Cc1c2oc3c(C)ccc(C(=O)[*:1])c3nc-2c(C(=O)[*:2])c(N)c1=O; aThr = C[C@H](O)[C@H](N)C(=O)O; NMeV = CN[C@H](C(=O)O)C(C)C; Sar = CNCC(=O)O

For 13 compounds, T/C results are on record in PubChem BioAssay AID236 (DTP/NCI, 2004).

`O=c1cn[nH]c(=O)[nH]1`: the T/C by setting is: (dose: 32.0 mg/kg/injection, schedule: Q01DX006 (iv), vehicle: saline) 88 % of control; (dose: 32.0 mg/kg/injection, schedule: Q01DX010 (ip), vehicle: saline) 88 % of control; (dose: 32.0 mg/kg/injection, schedule: Q01DX010 (sc), vehicle: saline) 88 % of control; (dose: 32.0 mg/kg/injection, schedule: Q02DX005 (im), vehicle: saline) 94 % of control; (dose: 64.0 mg/kg/injection, schedule: Q01DX006 (iv), vehicle: saline) 100 % of control; (dose: 64.0 mg/kg/injection, schedule: Q01DX010 (ip), vehicle: saline) 88 % of control. Moreover, the T/C (dose: 64.0 mg/kg/injection, schedule: Q01DX010 (sc), vehicle: saline) is 88 % of control; the T/C (dose: 64.0 mg/kg/injection, schedule: Q02DX005 (im), vehicle: saline) is 105 % of control; the T/C (dose: 100.0 mg/kg/injection, schedule: Q03DX Z (ip), vehicle: saline) was 88 % of control; the T/C (dose: 125.0 mg/kg/injection, schedule: Q01DX001 (ip), vehicle: saline) is 88 % of control and 94 % of control; the T/C (dose: 125.0 mg/kg/injection, schedule: Q01DX010 (oral), vehicle: saline) is 100 % of control; the T/C (dose: 125.0 mg/kg/injection, schedule: Q07DX Z (ip), vehicle: saline) was 111 % of control. The T/C was 88 % of control (dose: 128.0 mg/kg/injection, schedule: Q01DX006 (iv), vehicle: saline); 88 % of control (dose: 128.0 mg/kg/injection, schedule: Q01DX010 (ip), vehicle: saline); 88 % of control (dose: 128.0 mg/kg/injection, schedule: Q01DX010 (sc), vehicle: saline); 122 % of control (dose: 128.0 mg/kg/injection, schedule: Q02DX005 (im), vehicle: saline); 100 % of control (dose: 200.0 mg/kg/injection, schedule: Q03DX Z (ip), vehicle: saline); 94 % of control and 100 % of control (dose: 250.0 mg/kg/injection, schedule: Q01DX001 (ip), vehicle: saline). Besides, the T/C reads like this: (dose: 250.0 mg/kg/injection, schedule: Q01DX010 (oral), vehicle: saline) 94 % of control; (dose: 250.0 mg/kg/injection, schedule: Q07DX Z (ip), vehicle: saline) 88 % of control; (dose: 256.0 mg/kg/injection, schedule: Q01DX006 (iv), vehicle: saline) 105 % of control; (dose: 256.0 mg/kg/injection, schedule: Q01DX010 (ip), vehicle: saline) 100 % of control; (dose: 256.0 mg/kg/injection, schedule: Q01DX010 (sc), vehicle: saline) 105 % of control; (dose: 256.0 mg/kg/injection, schedule: Q02DX005 (im), vehicle: saline) 88 % of control. Further, the T/C runs as follows: (dose: 400.0 mg/kg/injection, schedule: Q03DX Z (ip), vehicle: saline) 94 % of control; (dose: 500.0 mg/kg/injection, schedule: Q01DX001 (ip), vehicle: saline) 94 % of control and 105 % of control; (dose: 500.0 mg/kg/injection, schedule: Q01DX010 (oral), vehicle: saline) 111 % of control; (dose: 500.0 mg/kg/injection, schedule: Q07DX Z (ip), vehicle: saline) 88 % of control; (dose: 800.0 mg/kg/injection, schedule: Q03DX Z (ip), vehicle: saline) 94 % of control; (dose: 1000.0 mg/kg/injection, schedule: Q01DX001 (ip), vehicle: saline) 100 % of control and 105 % of control. In addition, the T/C is, setting by setting: (dose: 1000.0 mg/kg/injection, schedule: Q01DX010 (oral), vehicle: saline) 94 % of control; (dose: 1000.0 mg/kg/injection, schedule: Q07DX Z (ip), vehicle: saline) 100 % of control.

With `CS(=O)(=O)OCCCl`, the T/C runs as follows: under setting [1], 100 % of control; under setting [2], 100 % of control; under setting [3], 100 % of control.

For `C[C@H]1C(=O)O[C@@H]2CCN3CC=C(COC(=O)[C@](C)(O)[C@@]1(C)O)[C@H]23`, the T/C was 111 % of control under setting [4], 100 % of control under setting [5] and 117 % of control under setting [6].

Turning to `CN(C)c1nc(N(C)C)nc(N(C)C)n1`, the T/C reads like this: under setting [1], 94 % of control; under setting [2], 100 % of control; under setting [3], 94 % of control; (dose: 150.0 mg/kg/injection, schedule: Q01DX010 (ip), vehicle: saline) 100 % of control.

In the case of `CCN(CC)CCNc1ccc(C)c2sc3ccccc3c(=O)c12`, the T/C runs as follows: under setting [7], 122 % of control; under setting [8], 105 % of control.

As for `CN[C@H]1CCc2cc(OC)c(OC)c(OC)c2-c2ccc(OC)c(=O)cc21`, the T/C is 95 % of control and 100 % of control (dose: 0.63 mg/kg/injection, schedule: Q01DX010 (ip), vehicle: other); 95 % of control and 100 % of control (dose: 1.25 mg/kg/injection, schedule: Q01DX010 (ip), vehicle: other); 90 % of control and 100 % of control (dose: 2.5 mg/kg/injection, schedule: Q01DX010 (ip), vehicle: other); 100 % of control and 104 % of control (dose: 5.0 mg/kg/injection, schedule: Q01DX010 (ip), vehicle: other).

With `CN(C)c1ccc(/C=C/c2ccnc3ccccc23)cc1`, the T/C is, setting by setting: (dose: 5.0 mg/kg/injection, schedule: Q01DX010 (ip), vehicle: saline) 111 % of control; under setting [9], 105 % of control; under setting [10], 94 % of control; under setting [11], 100 % of control.

On to `CC1CCOS(=O)O1` (stereo unspecified), for which the T/C under setting [9] was 100 % of control; the T/C under setting [10] is 88 % of control and 100 % of control; the T/C under setting [11] is 90 % of control and 100 % of control; the T/C (dose: 80.0 mg/kg/injection, schedule: Q01DX010 (ip), vehicle: saline) was 88 % of control.

Take `CSc1ncnc2nc[nH]c12`: the T/C under setting [7] is 100 % of control; the T/C (dose: 50.0 mg/kg/injection, schedule: Q01DX010 (ip), vehicle: saline) is 100 % of control; the T/C under setting [8] is 100 % of control; the T/C (dose: 200.0 mg/kg/injection, schedule: Q01DX010 (ip), vehicle: saline) is 100 % of control.

For the compound `Cc1c2oc3c(C)ccc(C(=O)N[C@@H]4C(=O)N[C@H](C(C)C)C(=O)N5CCC[C@H]5C(=O)N(C)CC(=O)N(C)[C@@H](C(C)C)C(=O)O[C@H]4C)c3nc-2c(C(=O)N[C@@H]2C(=O)N[C@H](C(C)C)C(=O)N3CCC[C@H]3C(=O)N(C)CC(=O)N(C)[C@@H](C(C)C)C(=O)O[C@H]2C)c(N)c1=O` (I: [aThr][dV]P[Sar][NMeV] / II: [aThr][dV]P[Sar][NMeV]; ester I:1-I:C, II:1-II:C; linker I:N-II:N via Actinocin(9to1)), the T/C by setting is: (dose: 12.5 micrograms/kg/injection, schedule: Q01DX010 (ip), vehicle: other) 100 % of control and 86 % of control; (dose: 25.0 micrograms/kg/injection, schedule: Q01DX010 (ip), vehicle: other) 95 % of control and 105 % of control; (dose: 50.0 micrograms/kg/injection, schedule: Q01DX010 (ip), vehicle: other) 100 % of control; (dose: 100.0 micrograms/kg/injection, schedule: Q01DX010 (ip), vehicle: other) 100 % of control and 109 % of control.

As to `Nc1nc(N)c2nc(CNc3ccc(C(=O)NC(CCC(=O)O)C(=O)O)cc3)cnc2n1` (stereo unspecified), the T/C by setting is: (dose: 0.05 mg/kg/injection, schedule: Q01DX010 (ip), vehicle: other) 120 % of control; (dose: 0.1 mg/kg/injection, schedule: Q01DX010 (ip), vehicle: other) 160 % of control and 215 % of control; (dose: 0.2 mg/kg/injection, schedule: Q01DX010 (ip), vehicle: other) 180 % of control and 300 % of control.

For `[I][Hg][CH2]C1COC([CH2][Hg][I])CO1` (stereo unspecified), the T/C (dose: 0.78 mg/kg/injection, schedule: Q01DX010 (ip), vehicle: saline) is 106 % of control; the T/C (dose: 1.56 mg/kg/injection, schedule: Q01DX010 (ip), vehicle: saline) was 100 % of control; the T/C under setting [4] was 100 % of control; the T/C under setting [5] was 100 % of control; the T/C under setting [6] was 88 % of control.

For the compound `N#Cc1cn(C2OC(CO)C(O)C2O)c2ncnc(N)c12` (stereo unspecified), the T/C runs as follows: (dose: 31.3 micrograms/kg/injection, schedule: Q01DX010 (ip), vehicle: saline) 100 % of control; (dose: 62.5 micrograms/kg/injection, schedule: Q01DX010 (ip), vehicle: saline) 100 % of control; (dose: 125.0 micrograms/kg/injection, schedule: Q01DX010 (ip), vehicle: saline) 118 % of control; (dose: 250.0 micrograms/kg/injection, schedule: Q01DX010 (ip), vehicle: saline) 100 % of control.
